This is an account of results in patent US20120083501A1, “COMPOUNDS FOR TREATING NEURODEGENERATIVE DISEASES” (priority 2010, published 2012).

The target of this assay is T1, BACE1 (Homo sapiens, UniProt P56817).
T1 construct: endogenous in cells; host or cells: HEK-293 cells stably transfected with wild type APP695
T1 sequence (P56817 46-501): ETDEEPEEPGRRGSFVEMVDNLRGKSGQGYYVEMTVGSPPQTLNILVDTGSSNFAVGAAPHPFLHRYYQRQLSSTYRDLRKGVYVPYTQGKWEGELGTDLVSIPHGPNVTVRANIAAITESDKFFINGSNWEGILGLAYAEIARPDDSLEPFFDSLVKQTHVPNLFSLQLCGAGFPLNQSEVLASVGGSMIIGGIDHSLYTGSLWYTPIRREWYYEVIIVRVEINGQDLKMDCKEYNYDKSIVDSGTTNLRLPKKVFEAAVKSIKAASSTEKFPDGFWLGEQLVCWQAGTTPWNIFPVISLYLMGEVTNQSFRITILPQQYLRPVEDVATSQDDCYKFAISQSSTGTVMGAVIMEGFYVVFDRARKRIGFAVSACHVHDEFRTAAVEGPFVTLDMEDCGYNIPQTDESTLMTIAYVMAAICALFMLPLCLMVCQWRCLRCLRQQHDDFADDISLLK
Put plainly: Cellular BACE1 Inhibition Assay (in vitro cellular Amyloidβ 1-40 production, HTRF immunoassay). Type of assay: cell-based. To be noted: inhibition of Amyloidβ 1-40 production; HEK-293 cells stably transfected with wild type APP695; 48 hours incubation; single assay or mean of multiple assays. How it is done:
The BACE inhibition properties of the compounds of the invention may be determined by the following in vitro cellular Amyloidβ 1-40 production assay.
Inhibition of Amyloidβ 1-40 production was determined by incubating cells with compound for 48 hours and quantifying the level of Amyloidβ 1-40 using an homogeneous time-resolved fluorescence (“HTRF”) immunoassay.
Materials and Methods: HEK-293 cells stably transfected with a DNA construct containing the coding sequence for the wild type APP695 sequence were grown in Dulbecco's Modified Eagle Medium (“DMEM”) supplemented with 10% fetal bovine serum, penicillin/streptomycin and 150 μg/mL G418. Cells were plated in 96-well plates at 35,000 cells/well and allowed to attach for 8-12 hours. Media was changed to DMEM supplemented with 10% fetal bovine serum, penicillin/streptomycin 15 minutes prior to compound addition. Diluted compounds were then added at a final concentration of 0.5% DMSO. After 48 hours, 4 μL of media from each well was added to a corresponding well of a 384 well plate (Perkin Elmer Cat#6008280) containing the HTRF reagents. HTRF reagents were obtained from the CisBio Amyloidβ 1-40 peptide assay kit (Cat# 62B40PEC) and were prepared as follows anti-peptide β (1-40)-Cryptate and anti-peptide β (1-40)-XL655 were stored in 2 plate aliquots at −80° C. Diluent and Reconstitution buffer were stored at 4° C. Aliquots of the two antibodies were diluted 1:100 with Reconstitution buffer, and this mixture was diluted 1:2 with Diluent. 12 μL of the reagent mixture was added to the required wells of the 384 well assay plate. The assay plate was incubated at 4° C. for 17 hours and then analyzed for fluorescence at 665 and 620 nm. The reported IC50 below may be from a single assay or the mean of multiple assays.
Regarding `CN1C(=O)C2(N=C1N)c1cc(-c3cncc(Cl)c3)ccc1OC1CC(F)(F)CCC12` (stereo not shown) [Example 17, 2-amino-7′-(5-chloropyridin-3-yl)-3′,3′-difluoro-1-methyl-1′,2′,3′,4′,4a′,9a′-hexahydrospiro[imidazole-4,9′-xanthen]-5(1H)-one], the midpoint of inhibition, the IC50, lay at 74.1 nM.
The same measure for `CN1C(=O)C2(N=C1N)c1cc(-c3cc(F)cc(Cl)c3)ccc1OC1CC(C)(O)CCC12` (stereo not shown) [Example 7, 2-amino-7′-(3-chloro-5-fluorophenyl)-3′-hydroxy-1,3′-dimethyl-1′,2′,3′,4′,4a′,9a′-hexahydrospiro[imidazole-4,9′-xanthen]-5(1H)-one]: 35.9 nM; for `CN1C(=O)C2(N=C1N)c1cc(-c3cccc(OC(F)F)c3)ccc1OC1CC(F)(F)CCC12` (stereo not shown) [Example 36, 2-amino-7′-(3-(difluoromethoxy)phenyl)-3′,3′-difluoro-1-methyl-1′,2′,3′,4′,4a′,9a′-hexahydrospiro[imidazole-4,9′-xanthen]-5(1H)-one]: 221 nM.
With `COc1ccc2c(c1)C1(N=C(N)N(C)C1=O)[C@H]1COCC[C@@H]1C2` (stereo partly drawn) [Example 107, (4aS,10aS)-2′-amino-8-methoxy-1′-methyl-1,3,4,4a,5,10a-hexahydrospiro[benzo[g]isochromene-10,4′-imidazol]-5′(1′H)-one] the figure was 801 nM; with `CN1C(=O)[C@]2(N=C1N)c1cc(-c3cncc(C#N)c3)ccc1O[C@H]1CCCO[C@@]12C` [Example 86, 5-((4S,4a′S,10a′R)-2-amino-1,10a′-dimethyl-5-oxo-1,3′,4′,4a′,5,10a′-hexahydro-2′H-spiro[imidazole-4,10′-pyrano[3,2-b]chromen]-8′-yl)nicotinonitrile], 4.6 nM; with `CN1C(=O)C2(N=C1N)c1cc(-c3cccnc3F)ccc1O[C@H]1CCCC[C@H]12` (relative stereo) [Example 14, cis 2-amino-7′-(2-fluoropyridin-3-yl)-1-methyl-1′,2′,3′,4′,4a′,9a′-hexahydrospiro[imidazole-4,9′-xanthen]-5(1H)-one], 48.3 nM.
`CN1C(=O)C2(N=C1N)c1cc(-c3cc(F)cc(Cl)c3)ccc1OC1CC(F)(F)CCC12` (stereo not shown) [Example 20, 2-amino-7′-(3-chloro-5-fluorophenyl)-3′,3′-difluoro-1-methyl-1′,2′,3′,4′,4a′,9a′-hexahydrospiro[imidazole-4,9′-xanthen]-5(1H)-one]: the IC50 worked out at 172 nM.
The same measure for `CN1C(=O)C2(N=C1N)c1cc(-c3cccnc3F)ccc1OC1CCC(F)(F)CC12` (stereo not shown) [Example 41, 2-amino-2′,2′-difluoro-7′-(2-fluoropyridin-3-yl)-1-methyl-1′,2′,3′,4′,4a′,9a′-hexahydrospiro[imidazole-4,9′-xanthen]-5(1H)-one]: 41.4 nM.
The same measure for `C[C@H]1OCCC2Oc3ccc(-c4cncc(Cl)c4)cc3[C@]3(N=C(N)N(C)C3=O)[C@@H]21` (mixture of isomers) [Example 50, (1′R*,4R*,4a′R*,10a′R*)-2-amino-8′45-chloropyridin-3-yl)-1,1′-dimethyl-3′,4′,4a′,10a'-tetrahydro-1′H-spiro[imidazole-4,10′-pyrano[4,3-b]chromen]-5(1H)-one]: 13.2 nM; for `CN1C(=O)[C@]2(N=C1N)c1cc(-c3cccnc3F)ccc1O[C@@]1(C)CCCO[C@@H]12` (relative stereo) [Example 64, (4S*,4a′S*,10a′R*)-2-amino-8′-(2-fluoropyridin-3-yl)-1,4a′-dimethyl-3′,4′,4a′,10a′-tetrahydro-2′H-spiro[imidazole-4,10′-pyrano[3,2-b]chromen]-5(1H)-one]: 1.8 nM.
